Measured values taken from patent US11000491B2, “Amino-aryl-benzamide compounds and methods of use thereof” (HEPANOVA, INC., priority 2017, dated 2021).
Entries after “also recorded” stand apart in the source; their conditions may differ.

Tests used:
[1] = test system: FASN; assay: Lipogenic gene mRNA by real-time qPCR in Huh7 cells; type: cell-based; conditions: 1 μM, 24 h
Text: (§1) FIG. 8. Inhibition of various lipogenic gene mRNA levels following treatment with HPN-01. […] Sterol regulatory element-binding protein-1 (SREBP-1); Sterol regulatory element-binding protein-2 (SREBP-2); Fatty acid synthase (FASN); Stearoyl-CoA-desaturase (SCD1); Acetyl-CoA carboxylase (ACC); Elongation of very long chain fatty acids fatty acid elongase 6 (ELOVL6); Low density liporeceptor (LDLR); Fatty acid desaturase 1 (FADS1); Diacylglycerol 0-Acyltransferase 1 (DGAT1); Diacylglycerol 0-Acyltransferase 2 (DGAT2).
(§2) Huh7 cells were treated with 1 μM of HPN-01 for 24 h, and the mRNA expression levels of various pivotal lipogenic enzymes were quantified by real-time qPCR. […] Folds of inhibition were as follows: SREBP-1: 2.98±0.23; SREBP-2: 4.01±0.31; FASN: 3.87±0.23; SCD1: 4.63±0.48; ACC: 4.12±0.34; ELOVL6: 2.84±0.22; LDLR: 3.02±0.11; FADS1: 3.06±0.17; DGAT1: 1.72±0.27; DGAT2: 3.77±0.45.

[2] = test system: FADS1; assay: as above; type: cell-based; conditions: 1 μM, 24 h
Text: as §1, §2

[3] = test system: ELOVL6; assay: as above; type: cell-based; conditions: 1 μM, 24 h
Text: as §1, §2

[4] = test system: SCD1; assay: as above; type: cell-based; conditions: 1 μM, 24 h
Text: as §1, §2

[5] = test system: ACC; assay: as above; type: cell-based; conditions: 1 μM, 24 h
Text: as §1, §2

[6] = test system: DGAT1; assay: as above; type: cell-based; conditions: 1 μM, 24 h
Text: as §1, §2

[7] = test system: nSTZ+HFD NASH mice; assay: Streptozotocin (STZ) and high fat diet-induced (nSTZ+HFD) NASH mice; type: in vivo, C57/BL6J mice; conditions: 5 or 15 mpk orally BID, 3 weeks
Experimental: FIG. 27. Design of study to test in vivo HPN-01 efficacy on streptozotocin (STZ) and high fat diet-induced (nSTZ+HFD) NASH mice.
The effect of HPN-01 on various physical and biochemical parameters in mice induced to develop NASH was tested. Briefly, newborn C57/BL6J mice were divided into 5 groups, with 8 animals per group. […] The remaining four groups were injected on days 2, 3 and 4, with Vehicle (Vehicle consists of 40% PEG400:10% Cremophor EL:50% water) containing 90 μg of streptozotocin (STZ), and fed a high fat diet (HFD) from week 4 through week 9 to establish NASH hallmarks in the liver. One of the groups (Vehicle group) that received STZ was not given any further drug treatment. The remaining three groups received either orally administered Telmisartan or orally administered HPN-01 starting at week 6 and continuing for 3 weeks. Telmisartan was orally administered once per day (QD) at a dosage of 10 mpk (mg/kg weight); this group served as a positive control. HPN-01 was administrated orally twice a day (BID) with either a lower (5 mpk) or a higher (15 mpk) dose. For each group, body weight and food intake were recorded daily.
At the end of the study, animals were fasted overnight, and fasted blood glucose levels measured and compared with a fasted glucose level obtained on Day 1 of the study.
Mice were then euthanized, and whole blood drawn by cardiac puncture. Sera were prepared and stored at −80° C. for alanine aminotransferase (ALT), aspartate aminotransferase (AST), triglyceride (TG) and total cholesterol (TC) detection. Livers were isolated and liver weights were recorded. Liver tissues were stored at −80° C. for TG, TC detection, measurement of various inflammatory and fibrotic markers, and pathological studies.
Liver tissues from various groups from the study shown in FIG. 27 were observed under a microscope following Hematoxylin and Eosin (H&E) stain and Oil-red-O staining, and an NAFLD activity score determined. Additional NAFLD/NASH pathology scores were also determined, including a hepatic steatosis score (FIG. 35B), a ballooning score (FIG. 35C) and an inflammation score (FIG. 35D).

[8] = test system: high fat diet-induced NAFLD/NASH mice; assay: High fat diet-induced NAFLD/NASH mice; type: in vivo, C57BL/6 mice
Experimental: FIG. 11. Study design of in vivo HPN-01 effects on high fat diet-induced NAFLD/NASH mice.
Eight-week old C57BL/6 mice were divided into a test group and a control group. The control group mice were fed with normal chow diet (NCD) for 24 weeks. The test group was further divided into a preventing group and a treatment group. In the preventing group, mice were fed with high-fat diet (HFD) and simultaneously treated with 25 mg/kg of HPN-01 or vehicle daily for 16 weeks, after which time the mice were euthanized and evaluated for NAFLD/NASH development. In the treatment group, mice were fed with HFD for 12 weeks to stimulate the development of NAFLD/NASH, and then treated with 25 mg/kg of HPN-01 or vehicle daily for additional 12 weeks. The mice were then euthanized and evaluated for the presence of NAFLD/NASH. This study design is illustrated in FIG. 11.
To determine the effect of HPN-01 on various fat-related molecules in the liver of mice from the study in Example 8, liver tissues were isolated and prepared and the levels of hepatic triglyceride and glycogen were measured.
The livers of mice from the study of Example 8 were also analysed for their levels of cholesterol, SREBP-1, and fatty acid synthesis. […] Likewise, SREBP-1 expression in HFD-fed mice with HPN-01 treatment was 0.52±0.06, a reduction of about 48% when compared with HFD-fed mice receiving only vehicle (FIG. 15B).
Plasma cholesterol and triglyceride levels were determined in blood taken from mice in the study described in Example 8.
Liver tissues from mice in the study of Example 8 were analysed for the expression level of inflammatory cytokines.
Liver tissues from mice in the study of Example 8 were analysed for the expression levels of hepatic molecules involved in the formation of fibrotic scarring.
Liver tissues were then analysed to determine the levels of various pro-fibrotic cytokines. […] The expression level of TIMP2, a fibrosis suppressor, was increased in the presence of HPN-01.

[9] = HFD-fed mice with HPN-01 treatment
[10] = HFD-fed mice, 25 mg/kg daily, 25 mg/kg
[11] = HFD-fed mice, preventing group (25 mg/kg daily, 16 weeks)
[12] = HFD-fed mice, treatment group (HFD 12 weeks, then 25 mg/kg daily 12 weeks)

NC(=O)c1cc(-c2ccc(Cl)cc2)cc(-c2ccc(S(N)(=O)=O)cc2)c1N [HPN-01, 2-amino-3-(p-sulfonamidophenyl)-5-(p-chlorophenyl) benzamide]
Folds of inhibition FASN mRNA [1]: 3.87±0.23 fold | Folds of inhibition FADS1 mRNA [2]: 3.06±0.17 fold | Folds of inhibition ELOVL6 mRNA [3]: 2.84±0.22 fold | Folds of inhibition SCD1 mRNA [4]: 4.63±0.48 fold | Folds of inhibition ACC mRNA [5]: 4.12±0.34 fold | Folds of inhibition DGAT1 mRNA [6]: 1.72±0.27 fold | body weight [7]: no effect | daily food intake [7]: no effect | fasted blood glucose levels ([7]; Day-22 vs Day-1): no effect | elevation of hepatic TC ([7]; dose-dependent): significantly reversed | elevation of hepatic TG ([7]; dose-dependent): significantly reversed | elevation of serum ALT ([7]; dose-dependent): significantly reversed | elevation of serum AST ([7]; dose-dependent): significantly reversed | increase of serum total cholesterol (TC) ([7]; dose-dependent): significantly abated | increase of serum triglyceride (TG) ([7]; dose-dependent): significantly abated | liver COL1A1 level ([7]; dose-dependent): reduced | liver MCP-1 mRNA ([7]; dose-dependent): significantly suppressed | liver TGF-β1 level ([7]; dose-dependent): reduced | liver TIMP-1 level ([7]; dose-dependent): reduced | liver TNF-α mRNA ([7]; dose-dependent): significantly suppressed | plasma cholesterol level ([8]; HFD-fed mice receiving HPN-01): 43.0 ± 15.5 mg/dL | plasma triglyceride level ([8]; HFD-fed mice receiving HPN-01): 31.2 ± 4.5 mg/dL | hepatic SREBP-1 expression (relative) [8, 9]: 0.52±0.06 | hepatic cholesterol level [8, 9]: 3.9±1.1 mg per g tissue | hepatic fatty acid synthesis [8, 9]: 13.2±2.8 DPMs/mg | size and color of liver ([8]; HFD-fed mice, 25 mg/kg daily): very similar to the control mice | LD deposition and inflammatory infiltration in liver sections (H&E, Oil-red-O) ([8]; HFD-fed mice, 25 mg/kg daily, preventing and treatment groups): substantially diminished | body weight increase / HFD-triggered obesity [8, 10]: significantly remitted; also recorded: reversed HFD-triggered obesity | fat deposition / visceral fat accumulation [8, 10]: significantly remitted; also recorded: significantly alleviated visceral fat accumulation | liver glycogen level [8, 11]: 8.4 ± 1.6 µg/mg | liver triglyceride level [8, 11]: 67.2 ± 28.3 mg/g | liver glycogen level [8, 12]: 13.3 ± 3.5 µg/mg | liver triglyceride level [8, 12]: 75.5 ± 19.8 mg/g | decrease of hepatic cholesterol vs vehicle ([8]; HFD-fed mice, vs vehicle only): about 1.92 fold | decrease of hepatic fatty acid synthesis vs vehicle ([8]; HFD-fed mice, vs vehicle only): about 3.18 fold | decrease of plasma cholesterol vs vehicle ([8]; HFD-fed mice, vs vehicle only): 2.75 fold | decrease of plasma triglyceride vs vehicle ([8]; HFD-fed mice, vs vehicle only): 1.87 fold | reduction of hepatic SREBP-1 expression vs vehicle ([8]; HFD-fed mice, vs vehicle only): about 48% | HFD induction of ITGA2, LOX, TIMP1, IGFBP1, IGFBP2, IGFBP3, IGFBP5, IGFBP6 and FGF-21 in liver ([8]; liver tissue mRNA, HFD-fed mice): significantly suppressed | HFD induction of hepatic expression of ICAM1(CD54), IL-1B, IL-8, MCP-1, THF-α and LIF ([8]; liver tissue, HFD-fed mice): substantially abrogated; also recorded: suppressed | expression level of TIMP2 (fibrosis suppressor) in liver ([8]; liver tissue, HFD-fed mice): increased
